Results from ChEMBL document CHEMBL5291721, “A preclinical secondary pharmacology resource illuminates target-adverse drug reaction associations of marketed drugs” (Nat Commun, 2023).

Experiments:
[1] = molecular target: Growth hormone secretagogue receptor type 1 (Homo sapiens, UniProt Q92847)
Endothelin-1 receptor = molecular target: T1, Endothelin-1 receptor (Homo sapiens, UniProt P25101)
T1 sequence (P25101 whole entry): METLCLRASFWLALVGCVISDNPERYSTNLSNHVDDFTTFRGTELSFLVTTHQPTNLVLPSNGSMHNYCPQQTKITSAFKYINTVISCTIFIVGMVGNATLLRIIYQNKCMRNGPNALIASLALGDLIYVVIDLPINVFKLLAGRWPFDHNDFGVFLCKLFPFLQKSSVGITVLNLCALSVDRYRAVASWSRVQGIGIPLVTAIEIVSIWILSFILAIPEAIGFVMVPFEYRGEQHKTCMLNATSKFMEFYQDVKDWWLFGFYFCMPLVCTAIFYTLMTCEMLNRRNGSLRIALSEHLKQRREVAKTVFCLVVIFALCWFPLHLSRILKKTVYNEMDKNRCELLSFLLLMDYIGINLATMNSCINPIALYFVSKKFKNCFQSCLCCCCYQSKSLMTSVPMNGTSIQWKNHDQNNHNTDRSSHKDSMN

[2] = molecular target: T2, Muscarinic acetylcholine receptor M2 (Homo sapiens, UniProt P08172); type: functional, cell-based
T2 sequence (P08172 whole entry): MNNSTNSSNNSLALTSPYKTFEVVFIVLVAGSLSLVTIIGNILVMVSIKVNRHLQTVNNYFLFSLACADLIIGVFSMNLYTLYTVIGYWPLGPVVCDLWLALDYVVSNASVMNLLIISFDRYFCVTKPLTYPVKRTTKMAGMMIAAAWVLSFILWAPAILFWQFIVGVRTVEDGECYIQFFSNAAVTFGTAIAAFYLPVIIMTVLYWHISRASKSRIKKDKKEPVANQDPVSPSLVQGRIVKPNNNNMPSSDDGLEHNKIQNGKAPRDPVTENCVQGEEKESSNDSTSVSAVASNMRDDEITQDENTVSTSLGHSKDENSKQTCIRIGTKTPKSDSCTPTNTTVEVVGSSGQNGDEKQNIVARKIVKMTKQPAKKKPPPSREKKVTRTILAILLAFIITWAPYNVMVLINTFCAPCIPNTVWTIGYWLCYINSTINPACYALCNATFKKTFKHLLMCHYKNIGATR

Histamine H2 receptor = Histamine H2 receptor (Homo sapiens, UniProt P25021); type: functional, cell-based
[3] = molecular target: T3, 5-hydroxytryptamine receptor 2C (Homo sapiens, UniProt P28335)
T3 sequence (P28335 whole entry): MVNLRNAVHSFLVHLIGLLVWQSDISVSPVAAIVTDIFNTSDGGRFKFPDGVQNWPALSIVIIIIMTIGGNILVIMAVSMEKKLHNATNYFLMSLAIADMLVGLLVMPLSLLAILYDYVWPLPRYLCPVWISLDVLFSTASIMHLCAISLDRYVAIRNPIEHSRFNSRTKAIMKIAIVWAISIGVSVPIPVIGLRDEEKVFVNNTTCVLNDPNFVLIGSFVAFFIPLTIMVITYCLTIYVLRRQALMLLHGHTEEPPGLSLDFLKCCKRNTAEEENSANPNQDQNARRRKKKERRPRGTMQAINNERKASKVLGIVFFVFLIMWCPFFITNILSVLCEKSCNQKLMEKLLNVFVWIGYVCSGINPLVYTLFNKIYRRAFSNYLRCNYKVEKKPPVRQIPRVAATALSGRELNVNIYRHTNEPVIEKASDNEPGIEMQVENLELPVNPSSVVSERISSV

[4] = molecular target: Neuronal acetylcholine receptor subunit alpha-4 (Homo sapiens, UniProt P43681)
[5] = molecular target: T4, Equilibrative nucleoside transporter 1 (Homo sapiens, UniProt Q99808)
T4 sequence (Q99808 whole entry): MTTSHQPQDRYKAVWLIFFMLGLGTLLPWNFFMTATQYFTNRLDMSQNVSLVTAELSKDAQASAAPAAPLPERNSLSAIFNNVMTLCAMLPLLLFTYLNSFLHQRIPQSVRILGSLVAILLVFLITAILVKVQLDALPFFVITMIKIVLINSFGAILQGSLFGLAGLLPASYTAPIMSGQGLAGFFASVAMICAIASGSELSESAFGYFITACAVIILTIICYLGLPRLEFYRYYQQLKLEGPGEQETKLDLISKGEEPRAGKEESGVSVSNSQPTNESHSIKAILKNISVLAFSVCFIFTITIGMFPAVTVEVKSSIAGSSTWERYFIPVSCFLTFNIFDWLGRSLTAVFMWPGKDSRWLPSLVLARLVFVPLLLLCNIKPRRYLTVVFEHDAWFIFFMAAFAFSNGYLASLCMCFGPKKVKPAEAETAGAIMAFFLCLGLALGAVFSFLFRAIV

[6] = molecular target: T5, Alpha-1A adrenergic receptor (Homo sapiens, UniProt P35348)
T5 sequence (P35348 whole entry): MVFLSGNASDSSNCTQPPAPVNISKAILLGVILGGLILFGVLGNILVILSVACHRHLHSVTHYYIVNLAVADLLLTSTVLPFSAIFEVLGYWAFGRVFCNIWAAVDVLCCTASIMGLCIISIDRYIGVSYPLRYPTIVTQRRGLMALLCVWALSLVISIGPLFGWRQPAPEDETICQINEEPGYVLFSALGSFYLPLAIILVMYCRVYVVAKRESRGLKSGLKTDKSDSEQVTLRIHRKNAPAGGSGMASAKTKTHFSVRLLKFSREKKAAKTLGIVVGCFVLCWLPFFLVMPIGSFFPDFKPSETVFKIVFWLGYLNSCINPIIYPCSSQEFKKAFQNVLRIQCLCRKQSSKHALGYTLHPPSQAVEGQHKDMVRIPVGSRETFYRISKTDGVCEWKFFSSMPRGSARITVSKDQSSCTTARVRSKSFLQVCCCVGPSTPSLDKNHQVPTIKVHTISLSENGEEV

[7] = molecular target: T6, Muscarinic acetylcholine receptor M1 (Homo sapiens, UniProt P11229); type: functional
T6 sequence (P11229 whole entry): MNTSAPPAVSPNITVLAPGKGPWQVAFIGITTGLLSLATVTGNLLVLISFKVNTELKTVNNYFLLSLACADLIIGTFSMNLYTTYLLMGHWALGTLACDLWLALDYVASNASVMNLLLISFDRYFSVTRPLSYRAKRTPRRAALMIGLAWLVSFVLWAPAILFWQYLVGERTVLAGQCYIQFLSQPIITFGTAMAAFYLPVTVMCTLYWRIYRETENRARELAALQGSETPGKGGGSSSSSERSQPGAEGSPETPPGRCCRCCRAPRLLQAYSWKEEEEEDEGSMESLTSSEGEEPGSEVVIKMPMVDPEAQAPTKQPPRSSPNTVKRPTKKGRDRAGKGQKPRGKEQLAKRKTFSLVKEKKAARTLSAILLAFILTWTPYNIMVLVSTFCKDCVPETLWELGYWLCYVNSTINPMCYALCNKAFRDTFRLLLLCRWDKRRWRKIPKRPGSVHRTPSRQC
Note: assay procedure not described here.

Neuronal acetylcholine receptor subunit alpha-4, sequence (P43681 whole entry): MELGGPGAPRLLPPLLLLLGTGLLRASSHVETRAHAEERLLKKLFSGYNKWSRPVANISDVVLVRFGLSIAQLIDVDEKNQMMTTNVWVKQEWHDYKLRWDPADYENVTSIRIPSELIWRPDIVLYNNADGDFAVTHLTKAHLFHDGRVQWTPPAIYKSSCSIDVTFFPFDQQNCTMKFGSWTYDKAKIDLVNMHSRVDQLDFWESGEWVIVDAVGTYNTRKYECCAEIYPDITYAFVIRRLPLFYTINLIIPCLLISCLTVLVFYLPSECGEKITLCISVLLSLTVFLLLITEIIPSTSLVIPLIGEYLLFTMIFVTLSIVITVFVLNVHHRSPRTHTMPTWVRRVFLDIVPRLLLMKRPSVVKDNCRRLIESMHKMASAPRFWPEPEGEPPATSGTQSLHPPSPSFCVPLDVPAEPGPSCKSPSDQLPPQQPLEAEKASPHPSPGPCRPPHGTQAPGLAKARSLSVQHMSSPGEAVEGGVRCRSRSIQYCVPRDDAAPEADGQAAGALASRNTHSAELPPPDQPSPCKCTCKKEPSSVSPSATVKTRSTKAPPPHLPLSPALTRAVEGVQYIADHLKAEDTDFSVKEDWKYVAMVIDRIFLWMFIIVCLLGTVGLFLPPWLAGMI
Histamine H2 receptor, sequence (P25021 whole entry): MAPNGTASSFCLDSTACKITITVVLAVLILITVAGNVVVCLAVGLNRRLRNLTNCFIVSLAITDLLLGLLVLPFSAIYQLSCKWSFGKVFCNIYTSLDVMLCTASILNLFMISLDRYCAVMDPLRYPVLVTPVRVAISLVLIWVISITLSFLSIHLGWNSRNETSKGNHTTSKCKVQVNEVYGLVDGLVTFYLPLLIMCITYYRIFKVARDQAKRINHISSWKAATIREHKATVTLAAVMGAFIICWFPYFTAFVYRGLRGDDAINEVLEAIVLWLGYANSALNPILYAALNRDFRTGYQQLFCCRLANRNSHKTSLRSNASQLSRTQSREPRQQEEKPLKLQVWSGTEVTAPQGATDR
Growth hormone secretagogue receptor type 1, sequence (Q92847 whole entry): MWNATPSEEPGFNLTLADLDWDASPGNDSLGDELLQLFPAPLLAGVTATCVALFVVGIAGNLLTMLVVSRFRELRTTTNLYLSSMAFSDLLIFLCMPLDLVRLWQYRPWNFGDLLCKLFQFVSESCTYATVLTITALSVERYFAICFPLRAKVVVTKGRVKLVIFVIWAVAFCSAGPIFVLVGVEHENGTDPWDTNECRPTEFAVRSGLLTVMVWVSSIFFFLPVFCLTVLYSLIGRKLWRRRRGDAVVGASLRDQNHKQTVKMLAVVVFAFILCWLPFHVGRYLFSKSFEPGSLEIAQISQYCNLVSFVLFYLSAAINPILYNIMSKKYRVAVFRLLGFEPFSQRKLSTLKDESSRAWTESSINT

| SMILES | AC50 [1] | AC50 (Endothelin-1 receptor) | AC50 [2] | AC50 (Histamine H2 receptor) | AC50 [3] | AC50 [4] | AC50 [5] | AC50 [6] | AC50 [7] |
| --- | --- | --- | --- | --- | --- | --- | --- | --- | --- |
| CCN(CC)CCCN(c1ccccc1)C1Cc2ccccc2C1 [APRINDINE] | 15 µM | > 30 µM | > 30 µM | > 30 µM | 8.5 µM | > 30 µM | > 30 µM | 1.3 µM | 14.5 µM |
| CN1C(=O)CN=C(c2ccccc2F)c2cc([N+](=O)[O-])ccc21 [FLUNITRAZEPAM] | 29.1 µM | > 30 µM | > 10 µM | > 10 µM | > 30 µM | > 10 µM | > 30 µM | > 10 µM | > 10 µM |
| Oc1cc(O)c2c(c1)O[C@H](c1ccc(O)c(O)c1)[C@@H](O)C2 [CIANIDANOL] | > 30 µM | > 30 µM | > 10 µM | > 10 µM | > 30 µM | > 10 µM | > 30 µM | > 10 µM | > 10 µM |
| O=C1CN=C(c2ccccc2Cl)c2cc([N+](=O)[O-])ccc2N1 [CLONAZEPAM] | > 30 µM | > 30 µM | > 10 µM | > 10 µM | > 30 µM | > 10 µM | > 30 µM | 11.9 µM | – |
| COc1nc(C)nc(Cl)c1N=C1NCCN1 [MOXONIDINE] | > 30 µM | > 30 µM | > 30 µM | 16 µM | > 30 µM | > 30 µM | – | > 30 µM | – |
| CC1NCCOC1c1ccccc1 (stereo not drawn) [PHENMETRAZINE] | > 30 µM | > 30 µM | > 10 µM | > 10 µM | > 30 µM | > 10 µM | > 30 µM | > 10 µM | > 10 µM |
| Cc1ccc(-c2ncc(Cl)cc2-c2ccc(S(C)(=O)=O)cc2)cn1 [ETORICOXIB] | > 10 µM | > 30 µM | > 10 µM | > 10 µM | > 10 µM | > 10 µM | > 30 µM | > 10 µM | > 10 µM |
| CC(C)(N)Cc1ccccc1 [PHENTERMINE] | > 30 µM | > 30 µM | > 10 µM | > 10 µM | > 30 µM | > 10 µM | > 30 µM | > 10 µM | > 10 µM |
| CCc1ccc(C(=O)C(C)CN2CCCCC2)cc1 (stereo not drawn) [EPERISONE] | > 30 µM | > 30 µM | > 30 µM | > 30 µM | > 30 µM | > 30 µM | > 30 µM | > 30 µM | – |
| Cc1nnc2n1-c1ccc(Cl)cc1C(c1ccccc1)=NC2 [ALPRAZOLAM] | > 30 µM | > 30 µM | > 10 µM | > 10 µM | > 30 µM | > 10 µM | > 30 µM | > 10 µM | – |
| CCOC(=O)C1=C(C)NC(C)=C(C(=O)OC)C1c1cccc(Cl)c1Cl (stereo not drawn) [FELODIPINE] | > 30 µM | > 30 µM | > 10 µM | > 10 µM | > 10 µM | > 10 µM | 28 µM | 13 µM | – |
| COc1ccc2c3c1O[C@H]1C(=O)CC[C@H]4[C@@H](C2)N(C)CC[C@]314 [HYDROCODONE] | > 30 µM | > 30 µM | > 10 µM | > 10 µM | > 30 µM | > 10 µM | > 30 µM | > 10 µM | > 10 µM |
| CN1C2CCCC1CC(NC(=O)c1nn(C)c3ccccc13)C2 (stereo not drawn) [GRANISETRON] | > 30 µM | > 30 µM | > 10 µM | > 10 µM | – | – | > 30 µM | > 10 µM | – |
| CCN(CC)C(C)C(=O)c1ccccc1 (stereo not drawn) [DIETHYLPROPION] | > 30 µM | > 30 µM | > 10 µM | > 10 µM | > 30 µM | > 10 µM | > 30 µM | > 10 µM | > 10 µM |
| CCC(NC(C)C)C(O)c1ccc(O)c(O)c1 (stereo not drawn) [ISOETHARINE] | > 30 µM | > 30 µM | > 30 µM | > 30 µM | > 30 µM | > 30 µM | > 30 µM | > 30 µM | > 30 µM |
| COc1ccc(C(Cl)=C(c2ccc(OC)cc2)c2ccc(OC)cc2)cc1 [CHLOROTRIANISENE] | > 30 µM | > 30 µM | > 30 µM | > 30 µM | > 30 µM | > 30 µM | > 30 µM | > 10 µM | > 30 µM |
| CC1=C(CC(=O)O)c2cc(F)ccc2/C1=C\c1ccc([S+](C)[O-])cc1 (stereo not drawn) | > 30 µM | > 30 µM | > 10 µM | > 10 µM | > 30 µM | > 10 µM | > 30 µM | > 10 µM | – |
